These results are taken from patent US20110117017A1, “PEPTIDES WITH PROPERTIES OF AN […] FOR THE ALPHA 1A […] RECEPTOR AND USES THEREOF” (priority 2006, published 2011).

Some results are limits rather than exact numbers.

The target of test [1] is T1, alpha1a receptor (Homo sapiens, UniProt P35348).
T1 construct: made in house; host or cells: Pichia pastoris (membranes)
T1 sequence (P35348 1-466): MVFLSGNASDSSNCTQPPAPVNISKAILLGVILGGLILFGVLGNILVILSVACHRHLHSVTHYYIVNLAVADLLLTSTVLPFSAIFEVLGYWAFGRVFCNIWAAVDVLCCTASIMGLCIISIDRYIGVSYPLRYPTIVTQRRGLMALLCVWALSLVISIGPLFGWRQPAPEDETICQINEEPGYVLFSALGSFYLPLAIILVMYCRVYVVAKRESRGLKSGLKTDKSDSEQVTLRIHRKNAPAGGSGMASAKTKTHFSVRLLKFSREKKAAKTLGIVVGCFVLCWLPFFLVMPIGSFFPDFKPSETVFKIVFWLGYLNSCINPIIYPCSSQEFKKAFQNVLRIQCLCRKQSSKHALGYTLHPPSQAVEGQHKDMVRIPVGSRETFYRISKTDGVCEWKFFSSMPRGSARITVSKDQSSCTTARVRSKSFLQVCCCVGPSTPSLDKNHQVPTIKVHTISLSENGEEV
The test is described as follows: displacement of 3H-prazosin binding to the alpha1a receptor (yeast membranes).

The target in test [2] is T2, alpha1b receptor (Homo sapiens, UniProt P35368).
T2 construct: made in house; host or cells: Pichia pastoris (membranes)
T2 sequence (P35368 1-520): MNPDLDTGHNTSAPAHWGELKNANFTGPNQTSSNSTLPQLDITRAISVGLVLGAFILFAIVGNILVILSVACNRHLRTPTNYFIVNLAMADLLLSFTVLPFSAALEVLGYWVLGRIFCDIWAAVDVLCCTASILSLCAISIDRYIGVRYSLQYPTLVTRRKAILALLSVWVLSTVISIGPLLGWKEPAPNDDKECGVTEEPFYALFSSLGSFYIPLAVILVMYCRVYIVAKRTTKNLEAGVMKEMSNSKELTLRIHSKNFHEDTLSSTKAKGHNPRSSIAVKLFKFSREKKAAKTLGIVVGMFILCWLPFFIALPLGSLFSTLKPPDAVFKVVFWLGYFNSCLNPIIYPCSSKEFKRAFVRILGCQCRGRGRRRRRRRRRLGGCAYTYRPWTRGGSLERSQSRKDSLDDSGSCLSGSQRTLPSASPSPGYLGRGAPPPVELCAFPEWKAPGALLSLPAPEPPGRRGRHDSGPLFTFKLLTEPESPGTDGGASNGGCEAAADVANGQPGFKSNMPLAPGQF
Briefly: displacement of 3H-prazosin binding to the alpha1b receptor (yeast membranes). (In general: Loss of bound radioactivity is the signal in a displacement assay; it reports binding, not function.)

Test [3] has as its target T3, alpha1d receptor (Homo sapiens, UniProt P25100).
T3 construct: made in house; host or cells: Pichia pastoris (membranes)
T3 sequence (P25100 1-572): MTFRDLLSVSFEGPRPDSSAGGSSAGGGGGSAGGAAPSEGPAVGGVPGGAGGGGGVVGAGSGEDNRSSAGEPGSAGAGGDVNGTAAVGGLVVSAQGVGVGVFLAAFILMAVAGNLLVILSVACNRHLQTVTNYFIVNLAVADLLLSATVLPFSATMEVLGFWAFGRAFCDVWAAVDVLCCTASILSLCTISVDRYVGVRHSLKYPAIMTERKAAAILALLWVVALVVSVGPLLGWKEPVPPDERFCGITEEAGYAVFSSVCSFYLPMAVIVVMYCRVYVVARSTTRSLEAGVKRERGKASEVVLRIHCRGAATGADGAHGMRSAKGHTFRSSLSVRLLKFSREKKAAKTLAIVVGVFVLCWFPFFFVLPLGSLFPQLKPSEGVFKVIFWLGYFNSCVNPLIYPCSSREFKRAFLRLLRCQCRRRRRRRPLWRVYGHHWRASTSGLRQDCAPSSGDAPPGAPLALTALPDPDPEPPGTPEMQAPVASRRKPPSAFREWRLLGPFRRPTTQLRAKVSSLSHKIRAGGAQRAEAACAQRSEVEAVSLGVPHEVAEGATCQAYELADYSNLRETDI
Briefly: displacement of 3H-prazosin binding to the alpha1d receptor (yeast membranes).

Test [4] has as its target T4, α2a adrenergic receptor (Homo sapiens, UniProt P08913).
T4 construct: made in house; host or cells: Pichia pastoris (membranes)
T4 sequence (P08913 1-465): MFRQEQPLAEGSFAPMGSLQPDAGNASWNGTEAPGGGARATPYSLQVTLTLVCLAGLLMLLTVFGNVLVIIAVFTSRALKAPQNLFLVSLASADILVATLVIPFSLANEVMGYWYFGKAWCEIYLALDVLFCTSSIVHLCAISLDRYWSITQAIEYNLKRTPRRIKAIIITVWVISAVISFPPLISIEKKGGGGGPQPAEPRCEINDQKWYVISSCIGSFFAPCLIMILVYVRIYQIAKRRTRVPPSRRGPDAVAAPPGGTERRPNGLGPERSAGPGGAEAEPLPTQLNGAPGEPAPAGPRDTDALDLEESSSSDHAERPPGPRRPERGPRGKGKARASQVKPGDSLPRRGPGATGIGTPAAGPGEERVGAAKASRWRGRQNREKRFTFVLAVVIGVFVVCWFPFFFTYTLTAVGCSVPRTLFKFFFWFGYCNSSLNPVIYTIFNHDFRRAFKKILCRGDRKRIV
Briefly: displacement of 3H-rauwolscine binding to the alpha2a subtype (yeast membranes).

For test [5], the target named is T5, beta1 receptor (Homo sapiens, UniProt P08588).
T5 construct: made in house; host or cells: Pichia pastoris (membranes)
T5 sequence (P08588 whole entry): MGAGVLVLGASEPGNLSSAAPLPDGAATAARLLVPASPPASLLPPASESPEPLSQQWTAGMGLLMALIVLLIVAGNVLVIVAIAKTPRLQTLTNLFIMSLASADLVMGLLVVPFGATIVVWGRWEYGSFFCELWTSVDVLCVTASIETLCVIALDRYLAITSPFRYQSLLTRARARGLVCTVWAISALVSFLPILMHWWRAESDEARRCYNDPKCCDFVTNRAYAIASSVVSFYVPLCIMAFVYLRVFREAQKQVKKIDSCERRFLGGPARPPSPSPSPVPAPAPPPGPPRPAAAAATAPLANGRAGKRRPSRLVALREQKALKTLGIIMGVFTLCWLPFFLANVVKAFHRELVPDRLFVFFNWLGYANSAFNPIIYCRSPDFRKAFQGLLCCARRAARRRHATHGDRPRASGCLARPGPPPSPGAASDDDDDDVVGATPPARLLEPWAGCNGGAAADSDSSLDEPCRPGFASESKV
Briefly: displacement of 3H-CGP12177 binding to the beta1 receptor (yeast membranes).

Test [6] addresses T6, alpha1a adrenergic receptor (Homo sapiens, UniProt P35348).
T6 sequence (P35348 1-466): T1 sequence (P35348 1-466)

Test [7] deals with T6, alpha1a adrenergic receptor. The test is described as follows: hot saturation of 125I-AdTx1 on yeast membranes expressing the alpha1a adrenergic receptor.
Procedure: The analysis of the saturation of the alpha1a adrenergic receptor with AdTx1 is carried out by incubating increasing concentrations of the iodinated peptide in the presence of 20 μg of membranes containing the alpha1a adrenergic receptor, for 20 h, and then measuring the radioactivity as above.

On to `CC[C@H](C)[C@@H]1NC(=O)CNC(=O)[C@H](Cc2ccccc2)NC(=O)[C@H]([C@@H](C)CC)NC(=O)[C@H](CO)NC(=O)[C@H](CCCCN)NC(=O)[C@H](CO)NC(=O)[C@H]([C@@H](C)O)NC(=O)[C@H](C(C)C)NC(=O)[C@@H](NC(=O)[C@@H](NC(=O)[C@@H](N)CC(C)C)[C@@H](C)O)CSSC[C@@H]2NC(=O)[C@H](CC(C)C)NC(=O)[C@H](CC(N)=O)NC(=O)[C@H](CCC(N)=O)NC(=O)CNC(=O)[C@H](CC(=O)O)NC(=O)[C@@H]3CCCN3C(=O)[C@H](CSSC[C@@H](C(=O)N[C@@H](C)C(=O)N[C@@H](C)C(=O)N[C@H](C(=O)N[C@H]3CSSC[C@@H](C(=O)N[C@H]4CSSC[C@@H](C(=O)N[C@@H](CC(N)=O)C(=O)N[C@@H](CCC(=O)O)C(=O)O)NC(=O)[C@H](CCCCN)NC(=O)[C@H](CC(=O)O)NC(=O)[C@H]([C@@H](C)O)NC(=O)[C@H](CCCCN)NC4=O)NC(=O)[C@H](Cc4c[nH]cn4)NC(=O)[C@H]([C@@H](C)CC)NC(=O)[C@H](CO)NC(=O)[C@H](CC(=O)O)NC(=O)[C@H](Cc4ccc(O)cc4)NC(=O)[C@H](CC(N)=O)NC(=O)[C@H](CCC(=O)O)NC(=O)[C@@H]4CCCN4C(=O)[C@H]([C@@H](C)CC)NC(=O)[C@@H]4CCCN4C3=O)[C@@H](C)O)NC(=O)CNC(=O)[C@H](CCCNC(=N)N)NC(=O)[C@H]([C@@H](C)O)NC(=O)[C@H](CO)NC(=O)[C@H](CC(=O)O)NC(=O)[C@H](Cc3ccc(O)cc3)NC(=O)[C@H]([C@@H](C)CC)NC(=O)[C@H](CCCCN)NC(=O)[C@@H]3CCCN3C(=O)[C@H](C(C)C)NC(=O)[C@H](C(C)C)NC(=O)[C@H](Cc3ccc(O)cc3)NC(=O)[C@H](Cc3c[nH]cn3)NC(=O)[C@H](CCCNC(=N)N)NC(=O)[C@H](CCCNC(=N)N)NC(=O)[C@H](CCCCN)NC(=O)[C@H](Cc3ccccc3)NC2=O)NC(=O)[C@H](CC(=O)O)NC(=O)[C@H](CCC(=O)O)NC(=O)[C@H]([C@@H](C)O)NC(=O)[C@H]([C@@H](C)O)NC1=O` [AdTx1], for which the IC50 (usually the concentration needed to halve the response being measured) was 1.8 nM in test [1]; 2300 nM in test [2]; 9900 nM in test [3]; over 50000 nM in test [4]; over 50000 nM in test [5]; 0.5 nM in test [6]. Also, the Kd (as a rule, the equilibrium constant for the complex coming apart) in test [7] was found to be 0.8 ± 0.2 nM.
